Source: patent US20070111258A1, “Compositions and methods for modulating the acute phase response” (priority 2005, published 2007)

How the values were obtained:
human CREBH = assay: Cleavage of flag-tagged human CREBH stably expressed in H2.35 cells (Western blot, cell fractionation); type: cell-based
Protocol: FIG. 3 depicts the effects of ER stress on CREBH: proteolytic cleavage of CREBH to release its N-terminal fragment that translocates into the nucleus. (A) Illustration of transmembrane domains and lumenal domains of SREBP, ATF6, Luman and CREBH in human (hs), mouse (mm). The conserved residues for S1P and S2P recognition are highlighted. (B) Cleavage of CREBH in H2.35 cells under different stimuli. H2.35 cells stably expressing flag-tagged human CREBH were treated with 0.5 μg/ml BFA, 20 ng/ml TNFα, 40 ng/ml IL6, 5 mM DTT, 0.5 μM Tg or 5 μg/ml Tm for 8 hours. Untransfected H2.35 cells (lane 1) and the H2.35 cells that stably express human CREBH (lane 2) were cultured under normal conditions as control. Total cell lysates were collected for Western blot analysis by using an anti-flag monoclonal antibody (upper panel). Levels of α-actin were determined for control of protein loading (lower panel). (C) Cleavage of CREBH in H2.35 cells under Tm treatment for various time periods. The H2.35 cells stably expressing flag-tagged CREBH were cultured in the absence or presence of Tm (5 μg/ml) for 4, 8 or 12 hours. Membrane fractions were isolated from the total cell lysates, and were subjected to Western blot analysis of CREBH and calnexin, respectively. Nuclear fractions were isolated from the same total cell lysates and subjected to Western blot analysis of CREBH and PARP, respectively. (D) Translocation of CREBH in COS7 cells. COS7 cells were co-transfected with a construct expressing flag-tagged full-length CREBH (CREBH-F) or CREBH-ΔC and a construct expressing KDEL-RFP, and were then cultured in the absence or presence of Tm (5 μg/ml) for 4 hours. Cells were then stained with FITC-conjugated anti-flag antibody and subjected to Zeiss Confocal Microscope analysis. Magnification: 40×10.
For analysis of expression and cleavage of CREBH protein, total cell lysates were prepared from H2.35 cells or COS7 cells using Nonidet P-40 lysis buffer (1% NP-40, 50 mM Tris-HCl at pH 7.5, 150 mM NaCl, 0.05% SDS) supplemented with protease inhibitors (Complete Mini from Roche Applied Science), 0.1 mM sodium vanadate, and 1 mM sodium fluoride. Membrane and nuclear fractions of cell lysates were isolated as previously described (Dignam et al., 1983). The total cell lysate, membrane and nuclear fractions were subjected to SDS-PAGE and then analyzed by Western blot using anti-flag monoclonal antibody or other antibodies. Immunoprecipitation and Western blot analyses of ATF6 and CREBH interaction in 293T cells expressing flag-tagged CREBH protein were performed by using anti-human ATF6 and anti-flag antibodies. Total cell lysates from 293T cells transfected with control vector or pFlag-CREBH-ΔC were immunoprecipitated with anti-human ATF6 polyclonal antibody and anti-flag antibody, respectively. The immunoprecipitated cell lysates were then subjected to Western blotting by using anti-flag antibody to detect CREBH protein and using anti-human ATF6 antibody to detect ATF6 protein, respectively. The same total cell lysates were subjected to Western blotting by using anti-flag antibody to detect expression of CREBH protein in the transfected cells. For detecting endogenous CREBH protein in the liver extracts, an anti-mouse CREBH polyclonal antibody was raised in rabbits against a purified mouse CREBH peptide composed of amino acids 92-109 [[…]]. The rabbit anti-human ATF6 polyclonal antibody was generated in the inventor's laboratory. The anti-mouse calnexin monoclonal antibody and the anti-mouse monoclonal PRAP antibody were purchased from Stressgen Biotechnologies (Victoria, BC, Canada) and BD Bioscience (Mountain View, Calif., USA), respectively.

SAP = assay: Serum SAP in CREBH knockdown and control RNAi mice (ELISA); type: in vivo, mouse; details: Tm 2 μg/gram body weight i.p., 24 hours
Protocol: (A) Identification of CREBH knockdown mice by Northern blot analysis. Transgenic mice with empty vector lentivirus expressing GFP were used as controls. Total RNAs (15 μg/lane) were isolated from the livers of the CREBH RNAi or the control mice, and subjected to Northern blot analysis. A 260 bp GFP cDNA fragment and a 210 bp mouse CREBH cDNA fragment were used as probes for detecting levels of GFP mRNA and CREBH mRNA, respectively. Levels of ββ-actin mRNA were determined for control of sample loading. (B) Morphology of CREBH knockdown embryos. The embryos were collected at gestation stage E14.5. The paraffin-embedded embryo sections were stained with hematoxylin and eosin. Magnification: 20 X. (C) Northern blot analysis of levels of CREBH, CRP and SAP mRNA in the livers of the CREBH knockdown or the control mice. Levels of β-actin mRNA were determined for sample loading controls. (D-E) Serum levels of SAP and CRP in the CREBH knockdown and the siRNA control mice in response to IL6 plus IL1β LPS or Tm. CREBH knockdown and RNAi control mice at 3-months of age were challenged with recombinant mouse IL6 (25 ng/gram body weight) plus recombinant mouse IL1β (25 ng/gram body weight), LPS (3 μg/gram body weight) or Tm (2 mg/kg body weight). Serum levels of SAP and CRP in the mice were determined before injection and at 24 hours after IL6 plus IL1β, LPS or Tm injection. […]

CREBH = assay: Confocal immunofluorescence of CREBH translocation in COS7 cells; type: cell-based; details: Tm 5 μg/ml 4 hours
Protocol: FIG. 3 depicts the effects of ER stress on CREBH: proteolytic cleavage of CREBH to release its N-terminal fragment that translocates into the nucleus. (A) Illustration of transmembrane domains and lumenal domains of SREBP, ATF6, Luman and CREBH in human (hs), mouse (mm). The conserved residues for S1P and S2P recognition are highlighted. (B) Cleavage of CREBH in H2.35 cells under different stimuli. H2.35 cells stably expressing flag-tagged human CREBH were treated with 0.5 μg/ml BFA, 20 ng/ml TNFα, 40 ng/ml IL6, 5 mM DTT, 0.5 μM Tg or 5 μg/ml Tm for 8 hours. Untransfected H2.35 cells (lane 1) and the H2.35 cells that stably express human CREBH (lane 2) were cultured under normal conditions as control. Total cell lysates were collected for Western blot analysis by using an anti-flag monoclonal antibody (upper panel). Levels of α-actin were determined for control of protein loading (lower panel). (C) Cleavage of CREBH in H2.35 cells under Tm treatment for various time periods. The H2.35 cells stably expressing flag-tagged CREBH were cultured in the absence or presence of Tm (5 μg/ml) for 4, 8 or 12 hours. […]
Immunofluorescence staining was performed as previously described (Paterson et al., 1995). […] The fluorescence images were examined by a confocal laser scanning fluorescence microscopy using an LSM510 (Carl Zeiss, Thornwood, N.Y.).

tunicamycin [Tm]
cleavage of CREBH to release a 50 kD N-terminal fragment (human CREBH; H2.35 cells stably expressing flag-tagged human CREBH, 8 hours, BFA 0.5 μg/ml, TNFα 20 ng/ml, IL6 40 ng/ml, DTT 5 mM, Tg 0.5 μM, Tm 5 μg/ml): significantly induced cleavage of CREBH
amount of 50 kD N-terminal cleaved CREBH fragment in the nuclear fraction (human CREBH; Tm 5 μg/ml for 4, 8 or 12 hours): gradually increased with increasing times of Tm treatment
increase of serum SAP (SAP; CREBH knockdown mice): approximately 2 fold
increase of serum levels of SAP (SAP; control mice): approximately 12 fold
nuclear accumulation of immunoreactive CREBH protein (CREBH): a significant portion of the immunoreactive CREBH protein accumulated in the nucleus
